Test results taken from article PMC8155176, “Reversible modulation of circadian time with chronophotopharmacology” (Nature Communications, 2021).

What was measured:
[1] = target: T1, CKIδ (Homo sapiens, UniProt P48730); assay: In vitro kinase assay (Kinase Glo), CKIδ; assay type: biochemical; conditions: green light 530 nm vs dark
T1 construct: purchased Eurofins 14-520
T1 sequence (P48730 1-294 limits assumed): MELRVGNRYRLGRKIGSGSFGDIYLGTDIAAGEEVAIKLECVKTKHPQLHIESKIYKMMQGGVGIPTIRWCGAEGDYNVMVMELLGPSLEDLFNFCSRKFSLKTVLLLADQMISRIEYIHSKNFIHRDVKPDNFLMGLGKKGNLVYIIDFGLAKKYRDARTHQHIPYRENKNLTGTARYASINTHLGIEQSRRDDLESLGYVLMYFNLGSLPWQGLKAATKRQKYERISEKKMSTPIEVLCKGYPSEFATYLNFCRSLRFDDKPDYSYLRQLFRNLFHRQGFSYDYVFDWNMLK
Protocol: A stock solution of 7.4 mM in DMSO was prepared and thermally adapted by heating to c.a. 100 °C for 1 min. Two series of eight samples were prepared with consecutive three-time dilutions from the stock solution. One of the series (‘dark’ samples) was prepared in dark Eppendorf tube, the other series (‘light’ samples) was pre-irradiated with UV light (365 nm, UV lamp Spectroline, ENB-280/FE, 1 × 8 Watt) for 45 min. For compound 9, 1 mM solution in DMSO was thermally adapted by heating to 80 °C for 2 min and split into two vials. One vial was kept in the dark and the other was irradiated with green light (530 nm, 3x Nichia NCSG219B-V1, 3 × 550 mW, Sahlmann Photochemical Solutions) for 60 min. Both dark-kept and irradiated samples were subjected to 8-point 3-fold dilutions. All the solutions were applied to the well plate under a red lamp in the dark room in order to prevent ambient-light-induced photo-isomerization. […]
By employing this method, all reactions were started at the same time, minimizing variance between different samples. […] After the incubation, 10 μL Kinase Glo® (Promega) was applied into the wells and the luminescent signal was recorded by a plate reader (BioTek Synergy H1 or Cytation). […]
The data obtained from the in vitro kinase assay was analyzed using GraphPad software, in which the luminescence outcome is normalized. […]

[2] = system: U2OS cells; assay: Circadian phase control in U2OS reporter cells; assay type: cell-based, human
Source text: Hypothetically, a transient change in period will lead to a phase change, consequently providing a relevant approach to jetlag treatment. Therefore, we applied visible-light responsive modulator 9 to control the circadian phase (Fig. 7). The compound was initially irradiated with green light for inactivation (cis-enriched 9, Fig. 7a, timepoint A) and applied to U2OS cells for luminescence rhythm measurement. On the next day, the cells were irradiated with violet light for compound activation or kept in dark (Fig. 7a, timepoint B).
Fig. 7 Circadian phase control using chronophotopharmacology. Green light (λmax = 530 nm)-irradiated compound 9 was applied to U2OS cells at 0 h (A). On the next day (B), the cells were irradiated with violet light (λmax = 400 nm) for 0 min (black and green lines), 10 min (light violet line), or 20 min (dark violet line). After 48 h or 72 h (C), the cells were irradiated with green light (λmax = 530 nm) for 0 min (black line) or 30 min (green, light violet, and dark violet lines). Luminescence rhythm profiles (average of n = 6) are shown in a. […] Luminescence is given in arbitrary units. n = 6 biologically independent samples. […]
Stable U2OS reporter cells harboring Bmal1-dLuc reporter were suspended in phenol red-free culture medium [DMEM (D2902, Sigma) supplemented with 10% fetal bovine serum, 3.5 mg/mL D-glucose, 3.7 mg/mL sodium bicarbonate, 0.29 mg/mL L-glutamine, 100 units/mL penicillin, and 100 µg/mL streptomycin] and plated onto a white, solid-bottom 384-well plates at 30 µL (3000 cells) per well. […] Luminescence was recorded every 100 min in a microplate reader, Infinite M200Pro (Tecan). For the phase control experiments, cellular light irradiation was performed in a dark 32 °C room and luminescence was recorded in a microplate reader Synergy H1 (BioTek) placed in the same room, to avoid possible effect of transient temperature change on the phase. Circadian period and phase were determined from luminescence rhythms by a curve fitting program MultiCycle (Actimetrics). […]

`CC(C)n1cnc2c(NCc3ccc(F)c(/N=N/c4c(F)cccc4F)c3F)ncnc21` [Compound 9] was tested, and the “ratio of CKIδ IC50 of cis-isomer to trans-isomer” value [1] was 3.7 times, the “period after green light reversal” value ([2]; after time point C) was “returned to normal” and the “phase delay compared with dark samples, 48 h condition” value ([2]; violet light activation, reversed by green light after 48 h) was 2 h. For the same molecule, the “phase delay compared with dark samples, 72 h condition” value ([2]; violet light activation, reversed by green light after 72 h) was 4 h.
